In patent publication US7118767B2, “Pharmaceutical composition for increasing the production of nitric oxide and IFN-γ, and process for preparation thereof” (Jakwang Co., Ltd., priority 2001, dated 2006):

What was measured:
[1] = system: macrophages; test: Inhibitory effect of N^GMMA on NO production induced by liquids of Example 1 in macrophages; type: cell-based, mice; conditions: macrophages with liquids (1 mg/mL) of Example 1 and IFN-γ; FIG. 3
Protocol: (§1) The amount of NO production from macrophages was measured by Griess reaction by quantitizing nitrite (NO2^−), oxides of NO, accumulated on the broth. That is, 100 μL of Griess reagents in which 0.1% naphthylethylene diaminedihydrochloride and 1% sulfanilamide is mixed at the same amount and 100 μL of culture media was mixed, and after 10 minutes, absorbance was measured at 540 nm by ELISA reader. Standard curve using sodium nitrite as standard substance was drawn and the concentration of NO was determined from the absorbance.
To investigate if iNOS production from macrophages by the composition of the present invention is included in L-arginine-dependent process, the macrophages were treated liquids (1 mg/mL) of Example 1 in the presence of IFN-γ and NGMMA, the competitive inhibitor of NO production, and the amount of NO production was measured by the same method as Experiment 2.

[2] = system: macrophages; test: Inhibiting effect on iNOS production by NF-kB inhibitor (NO2^- concentration in macrophages); type: cell-based, mice
Protocol: as §1
Hereupon, macrophages were treated with recombinant IFN-γ (rIFN-γ) and liquids (1 mg/mL) of Example 1 followed by treatment with pyrrolidine dithiocarbamnate (PDTC) and N^α-Tosyl-phenylalanyl chloromethyl ketone (TPCK), which are NF-kB inhitors, respectively and the change of concentration of NO2^− was observed together with control group. The results are shown in the hereinbelow Table 1 [Inhibitory effect on iNOS production by NF-kB inhibitor].

## CNC(=N)NCCC[C@H](N)C(=O)O [N^GMMA, N^G-monomethyl-L-arginine]
[1]
  amount of NO production as the amount of N^GMMA increases: tendency to decrease

## S=C(S)N1CCCC1 [PDTC, pyrrolidine dithiocarbamnate]
[2]; rIFN-γ (10 U/mL) + Liquids of Example 1 (1 mg/mL) + PDTC (100 μM)
  Concentration of NO2^-: 10.5 ± 2.8

B1: rIFN-γ: recombinant IFN-γ (rIFN-γ), used at 10 U/mL (protein, UniProt P01579 24-161, looked up)
Interferon gamma: QDPYVKEAENLKKYFNAGHSDVADNGTLFLGILKNWKEESDRKIMQSQIVSFYFKLFKNFKDDQSIQKSVETIKEDMNVKFFNSNKKKRDDFEKLTNYSVTDLNVQRKAIHELIQVMAELSPAAKTGKRKRSQMLFRG
[2]; rIFN-γ (10 U/mL) only
  Concentration of NO2^-: 32 ± 3.2
